# Source: patent US20240238426A1, “PROTEIN ACYLATION MODULATION BY HETEROBIFUNCTIONAL MOLECULES” (THE SCRIPPS RESEARCH INSTITUTE, priority 2021, published 2024)
# Assays:
# TP53 target genes = assay: RNA-seq analysis of FKBP12^F36V-p53 H1299 cells; assay type: cell-based, Human
# FKBP12^F36V = molecular target: T1, FKBP12^F36V (Homo sapiens, UniProt P62942, F37V); assay: AceTAG-1 target engagement: FKBP-p photo-crosslinking probe competition in HEK293T cells; assay type: cell-based; conditions: 0.5 μM FKBP-p probe, increasing concentrations of AceTAG-1, 30 min, FIG. 3E
# T1 construct: expressed in transfected cells; host or cells: HEK293T (transient)
# Method: AceTAG-1 Target Engagement: At 50%-70% confluency, HEK293t cells in 6-well plates were transfected with pLEX305-C-dTAG-H3.3. After 24 h, cells were co-treated for 30 min with 0.5 μM FKBP-p probe and increasing concentration of AceTAG-1 in serum-free DMEM media. Cells then underwent UV-photocrosslinking (365 nm) for 20 min at 4° C., harvested in cold DPBS by scraping and centrifugation, cell pellets were washed with cold DPBS two times and aspirated. Cells were then lysed in 400 μL DPBS buffer supplemented with 0.2% SDS (w/v) and 1X Halt protease inhibitor cocktail. Lysate was then normalized to 1.5 mg/mL. […] Proteins (25 μg total protein loaded per gel lane) were resolved using SDS-PAGE (10% acrylamide) and visualized by in-gel fluorescence on Bio-Rad ChemiDoc MP Imaging System. Gel fluorescence and imaging was processed using Image Lab (v 6.0.1) software. […] Chemiluminescence was recorded with Bio-Rad ChemiDoc MP Imaging System and processed using Image Lab (v 6.0.1) software.
# [1] = tested on: H3.3-FKBP12^F36V HeLa cells; assay: Quantitative acetylproteomics of H3.3-FKBP12^F36V HeLa cells; assay type: cell-based, Human
# Method: Sample preparation: Frozen cell pellets were thawed on ice and lysed in a buffer containing 50 mM Tris-HCl (pH 7.5), 150 mM NaCl, 1 mM EDTA, 1% NP-40, 0.1% sodium deoxycholate, 5 mM sodium butyrate, 10 mM nicotinamide and 1X Pierce™ protease inhibitor cocktail. Cells were sonicated to ensure complete lysis, mixed with 5 M NaCl at a ratio of 1:10 with sample volume and incubated on ice for 15 min to release chromatin-bound proteins. Cell lysates were then sonicated again to shear genomic DNA. Cellular debris was cleared by centrifugation at 16,000 g for 20 min at 4° C., protein concentration was determined using a Pierce™ BCA assay and ˜10 mg of protein was aliquoted for acetyl-proteomic analysis. Proteins were denatured with 8 M urea in 50 mM HEPES, reduced with 5 mM dithiothreitol for 30 min at 56° C., then alkylated with 5 mM iodoacetamide for 20 min in the dark at RT. Following alkylation, proteins were precipitated using chloroform-methanol as previously described, and protein pellets were dried at 56° C. for 15 min. Proteins pellets were resuspended in 1 M urea in 50 mM HEPES and digested in a two-step process with LysC and trypsin as previously described. Digested peptides were desalted using Phenomenex Strata-X polymeric reverse phase extraction cartridges using the following protocol. Cartridges were conditioned with 1 mL 100% acetonitrile, 1 mL 80% acetonitrile/0.5% AA, and 1 mL 0.1% TFA. Peptides were then loaded on to the cartridge at a reduced flow rate and desalted with 5 mL 0.1% TFA followed by 1 mL 0.5% AA. Desalted peptides were eluted using 1 mL 40% acetonitrile/0.5% AA followed by 1 mL 80% acetonitrile/0.5% AA and lyophilized. Digested peptides were quantified using the Pierce™ Quantitative Colorimetric Peptide Assay and […] was aliquoted from each for total protein analysis while the remaining peptide was lyophilized and retained for acetyl-peptide enrichment.
# Acetyl-peptide Enrichment: Acetyl-peptides were enriched using the PTMScan® Acetyl-Lysine Motif [Ac-K] Kit according to manufacturer instructions. […]
# [2] = 3 μM AceTAG-1 compared to vehicle, FIG. 7F
# T1 sequence (P62942 2-108 F37V limits assumed): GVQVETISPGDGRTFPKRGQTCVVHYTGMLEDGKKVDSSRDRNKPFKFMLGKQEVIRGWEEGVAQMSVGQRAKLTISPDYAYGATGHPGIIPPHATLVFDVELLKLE
smiles,measurement,setting,value
"CC[C@H](C(=O)N1CCCC[C@H]1C(=O)O[C@H](CCc1ccc(OC)c(OC)c1)c1cccc(OCC(=O)NCCOCCOCCC(=O)NCCOc2ccc(CCc3nc4cc(-c5c(C)noc5C)ccc4n3CCN3CCOCC3)cc2)c1)c1cc(OC)c(OC)c(OC)c1 [AceTAG-1, (R)-3-(3,4-dimethoxyphenyl)-1-(3-((15-(4-(2-(5-(3,5-dimethylisoxazol-4-yl)-1-(2-morpholinoethyl)-1H-benzo[d]imidazol-2-yl)ethyl)phenoxy)-2,12-dioxo-6,9-dioxa-3,13-diazapentadecyl)oxy)phenyl)propyl (S)-1-((S)-2-(3,4,5-trimethoxyphenyl)butanoyl)piperidine-2-carboxylate]","increases in apoptotic (Bax, Puma), metabolic (GLS2) or autoregulatory (Mdm2) targets","TP53 target genes; 3 μM AceTAG-1, RNA-seq",little to no increases
same,upregulation of CDKNIA transcript,TP53 target genes; [2],~2.8 fold
same,upregulation of GDF15 transcript,TP53 target genes; [2],~3 fold
same,upregulation of SLC7A11 transcript,TP53 target genes; [2],~1.7 fold
same,upregulation of TP5313 transcript,TP53 target genes; [2],~1.6 fold
same,competition of FKBP-p probe binding to FKBP12^F36V,FKBP12^F36V,efficiently competed
same,changes in acetylation of detected proteins relative to DMSO,"[1]; 600 nM AceTAG, FIG. 5D",no substantial changes in acetylation of any detected protein
same,"endogenous histone lysine acetylation, including H3.3","[1]; AceTAG treatment, FIG. 9C",no substantial changes
